Measurements: patent publication US8338475B2, “Anti-proliferative pharmaceutical composition” (BioCis Pharma Oy, priority 2003, dated 2012)
Values joined by “and” are separate entries in the source; they are usually repeats but may differ in a detail not shown here. Identical values can stand only once.

Tests used:
[1] = test system: human polymorphonuclear neutrophils; conditions: extracellular pH range 6.1 to 7.0; patent application US2006035973; cited from earlier work
[2] = test system: K562 (chronic myelogenous leukemia); assay: Proliferation assay (CellTiter 96), K562 cells; assay type: cell-based, human; conditions: Homo sapiens, pH 6.5, 44 h, cis-UCA 10 mM, CPT 2 μM, 15,000 cells per 100 μl, read-out: Inhibition of proliferation (mean percentage inhibition ± SD compared with untreated control)
From the text: (§1) Transformed tumour cell lines WM 266-4 and A2058 (cutaneous melanoma), HT-1080 (epithelial fibrosarcoma), HeLa (epithelial adenocarcinoma of cervix), HK293 (kidney epithelial cells) and non-transformed cell line HSF (skin fibroblast from a healthy volunteer donor) of human origin have been described earlier (Li et al. 2003). The K562 (chronic myelogenous leukemia) cells were purchased from American Type Culture Collection.
(§2) The cells were maintained in logarithmic growth phase in IMDM medium (Invitrogen, Paisley, UK) supplemented with 10% fetal calf serum and antibiotics in a humidified incubator at +37° C., 5% CO2. The adherent cells lines were harvested for experiments with 0.25% trypsin-EDTA in PBS for 5 min and then resuspended and washed in medium. After counting of viable cells, 15,000 to 75,000 cells were transferred into flat-bottom 96-well cell culture plates in a volume of 100 or 150 μl.
(§3) The proliferation activity of cultured cell lines was quantified in flat-bottom 96-well plates with a modified colorimetric assay based on a tetrazolium derivative (CellTiter 96 Aqueous One Solution Cell Proliferation Assay, Promega). The cells were cultured in the presence of camptothecin and/or cis-UCA for 20 to 92 h, then the proliferation reagent was added for 2 h, and the absorbance at 490 nm was measured in a plate reader. […]

[3] = test system: HT-1080 (epithelial fibrosarcoma); assay: Proliferation assay (CellTiter 96), HT-1080 cells; assay type: cell-based, human; conditions: Homo sapiens, pH 6.5, 44 h, cis-UCA 10 mM, CPT 2 μM, 15,000 cells per 100 μl, read-out: Inhibition of proliferation (mean percentage inhibition ± SD compared with untreated control)
From the text: as §1, §2, §3

cell lines = assay: Proliferation assay, statements on the cell lines as a group; assay type: cell-based, human; conditions: camptothecin 2 μM; 44 h; pH 6.5 or 7.4 (FIG. 1)
Method: The cells were cultured for 44 h with or without 2 μM camptothecin (CPT) at pH 6.5 or 7.4 conditions. After a 2-h incubation with the proliferation assay reagent, the absorbance at 490 nm was recorded. Cells were cultured in a density of 15,000 cells (K562, HT-1080, HK293) or 75,000 cells (the other cells) in a volume of 150 μl.
Three cell lines were cultured with cis-UCA and/or 1 μM camptothecin at a density of […] per well (100 μl) for 44 h in pH 6.5 medium. Blank wells with all the cis-UCA concentrations but without cells were included and their absorbance subtracted from those of the corresponding test wells.
as §1, with “The K562 (chronic myelogenous leukemia) cells were purchased from American Type Culture Collection.” left out
as §3

[4] = test system: A2058 human cutaneous melanoma tumours; assay: Tumour growth in SCID/SCID mice in vivo; conditions: 16-day treatment, 1 μM CPT, pH 6.5
Method: All injection solutions were adjusted to pH 6.5. The data points have been normalised to unity tumour size at day 0. Data from five mice in each group is included (mean, SD).
The A2058 human cutaneous melanoma cells were cultured under normal cell culture conditions prior to injection into mice. Two million A2058 cells were injected s.c. into the neck of SCID/SCID mice (Charles River Laboratories, Germany). Tumours were allowed to develop for two weeks to the size of a small pearl before the treatments. The mice were divided into four groups of six animals, each containing three males and three females. Each tumour was first injected 50 μl of one of the test solutions (A: PBS; B: 30 mM cis-UCA; C: 1 μM CPT; D: 30 mM cis-UCA+1 μM CPT) three times a week (Mon-Wed-Fri). After day 7 from the beginning of injections, the injection volume was increased to 150 μl injected into three different sides of the tumour. Tumour length and width were measured with a caliper three times a week before each injection. Tumour planar area was calculated as length×width. The tumour growth inhibition efficiency I of the treatments was calculated according to Equation 1:
[formula] where Sr represents the normalised relative size of the tumour in the control group (A) or any of the treatment groups (T), and d0 to d16 are the (eight) measuring time points during the 16-day treatment period.
(§4) After 16 days from the first injection, all the animals were sacrificed with CO2, and the tumours were collected and fixed in formalin for further studies. In groups A, C, and D, one mouse was sacrificed before the end of the experiment because of poor development of the tumour (no measurable tumour at day 0). One animal in group B was sacrificed prematurely after it had severly scratched the tumour. Data from these animals were not included in the calculation of the tumour size results. All the removed animals were female mice. Immunohistochemical data was obtained also from the removed mice except from group B. The experiments were conducted under a protocol approved by the local ethics committee.

[5] = test system: HeLa (epithelial adenocarcinoma of cervix); assay: Proliferation assay (CellTiter 96), HeLa cells; assay type: cell-based, human; conditions: Homo sapiens, pH 6.5, 44 h, cis-UCA 10 mM, CPT 2 μM, 15,000 cells per 100 μl, read-out: Inhibition of proliferation (mean percentage inhibition ± SD compared with untreated control)
From the text: as §1, §2, §3

[6] = test system: WM 266-4 (cutaneous melanoma); assay: Proliferation assay (CellTiter 96), WM266-4 cells; assay type: cell-based, human; conditions: Homo sapiens, WM 266-4, pH 6.5, 44 h, cis-UCA 10 mM, CPT 2 μM, 15,000 cells per 100 μl, read-out: Inhibition of proliferation (mean percentage inhibition ± SD compared with untreated control)
Method: (§5) The cells were cultured in triplicate with or without 2 μM camptothecin (CPT) or 10 mM cis-UCA in a density of 15,000 cells per […]. A, Cells taken from normal pH 7.4 cultures to test conditions at pH 6.5. B, Cells cultured in low pH 6.7 adaptation medium for 3 d, then tested at pH 6.5. C, Cells cultured and tested at pH 7.4.
as §1, §2
(§6) The proliferation activity of cultured cell lines was quantified in flat-bottom 96-well plates with a modified colorimetric assay based on a tetrazolium derivative (CellTiter 96 Aqueous One Solution Cell Proliferation Assay, Promega). The cells were cultured in the presence of camptothecin and/or cis-UCA for 20 to 92 h, then the proliferation reagent was added for 2 h, and the absorbance at 490 nm was measured in a plate reader. Blank absorption values in wells containing medium without cells were subtracted before comparison analysis.
(§7) The cell lines were tested in a 44-h culture at pH 6.5 with or without 2 μM camptothecin and 10 mM cis-UCA at 15,000 cells per 100 μl total volume. […] In order to further characterise the effective anti-proliferative concentration range of cis-UCA, proliferation was measured in a 44-h assay at pH 6.5 with cis-UCA concentration ranging from 30 μM to 30 mM.

[7] = test system: A2058 (cutaneous melanoma); assay: Proliferation assay (CellTiter 96), A2058 cells; assay type: cell-based, human; conditions: Homo sapiens, pH 6.5, 44 h, cis-UCA 10 mM, CPT 2 μM, 15,000 cells per 100 μl, read-out: Inhibition of proliferation (mean percentage inhibition ± SD compared with untreated control)
Method: as §5
Proliferation was measured in a 44-h assay at pH 6.5 with 30 μM to 30 mM cis-UCA and 2 μM camptothecin. Both proliferation (A) and calculated percentage inhibition data (B) are presented.
as §1, §2, §6, §7

[8] = test system: Ki67 (proliferating cells) in A2058 tumours; assay: Immunohistochemistry of tumours, Ki67 staining; assay type: in vivo, SCID/SCID mice; conditions: tumours collected after 16 days; 30 mM cis-UCA, 1 μM CPT intratumoural
From the text: as §4
(§8) Paraffin sections of the tumours were stained with haematoxylin/eosin following standard procedures for an overall picture. Ki67 was stained to detect the amount of proliferating cells. The staining procedure for the Ki67 primary antibody (Dako, Klostrup, Denmark) at 1:50 dilution and secondary antibody (StreptABComplex/HRP Duet Mouse/Rabbit, Dako) at 1:100 dilution followed the instructions provided by the manufacturer. Two sections from each tumour was examined.

A2058 tumours = assay: Haematoxylin/eosin staining of tumour sections (necrosis); assay type: in vivo, SCID/SCID mice; conditions: tumours collected after 16 days; 30 mM cis-UCA, 1 μM CPT intratumoural
From the text: as §4, §8

[9] = test system: HK293 (kidney epithelial cells); assay: Proliferation assay (CellTiter 96), HK293 cells; assay type: cell-based, human; conditions: Homo sapiens, Epithelial cell, pH 6.5, 44 h, cis-UCA 10 mM, CPT 2 μM, 15,000 cells per 100 μl, read-out: Inhibition of proliferation (mean percentage inhibition ± SD compared with untreated control)
From the text: as §1, §2, §3

HSF (skin fibroblast) = assay: Proliferation assay (CellTiter 96), HSF cells; assay type: cell-based, human; conditions: Homo sapiens, Skin fibroblast, pH 6.5, 44 h, cis-UCA 10 mM, CPT 2 μM, 15,000 cells per 100 μl, read-out: Inhibition of proliferation (mean percentage inhibition ± SD compared with untreated control)
From the text: as §1, §2, §3

Row | SMILES | effect on the intracellular pH of neutrophils [1] | inhibition at 2 µM [2] | inhibition at 2 µM [3] | anti-proliferative effect in all cell line cultures (cell lines) | mean tumour area relative to the initial size at day 0 ([4]; intratumoural injection three times a week, 30 mM cis-UCA) | Growth suppression, female ([4]; female mice, intratumoural 30 mM cis-UCA) | Growth suppression, male ([4]; male mice, intratumoural 30 mM cis-UCA) | inhibition at 2 µM [5] | inhibition at 2 µM [6] | inhibition at 2 µM [7] | Ki67+ (number of positive tumours/total analysed) [8] | Necrosis (histological sections with haematoxylin/eosin staining) (A2058 tumours) | inhibition at 2 µM [9] | inhibition at 2 µM (HSF (skin fibroblast))
1 | O=C(O)C=Cc1c[nH]cn1 [trans-UCA, 3-(1H-imidazol-4-yl)-2-propenoic acid, reference compound] | not trans-UCA affected the intracellular pH | – | – | – | – | – | – | – | – | – | – | – | – | –
2 | CC[C@@]1(O)C(=O)OCc2c1cc1n(c2=O)Cc2cc3ccccc3nc2-1 [CPT, Camptothecin, reference compound] | – | 77 ± 3.3% | 71 ± 1.7% | inhibited the proliferation in all cell line cultures and showed more efficient inhibition at pH 6.5 | about four | 90.3% | 44.7% | 78 ± 1.6% | 81 ± 1.1% | 84 ± 3.3% | three out of six tumours and 3/6 | Dead cells and large necrotic areas were detected and yes | 56 ± 1% | 37 ± 0.4%
